Reference: US12565522B2, “Micropeptide HMMW and application thereof” (NANJING ANJI BIOTECHNOLOGY CO., LTD., priority 2019, dated 2026)
No end group written: not given here.

How the values were obtained:
Test in all cases: cells
Format in all cases: cell-based, human
Settings in all cases: 1 to 32 μM, vs negative control, dose-dependent
[1] = tested on: A431 cells of skin cancer
Description: (§1) After SCC4 cells of head and neck cancer, SW579 cells of thyroid cancer, A549 cells of lung cancer, TE13 cells of esophageal squamous cell carcinoma, MGC803 cells of stomach cancer, MDA-MB-231 cells of breast cancer, UOK262 cells of kidney cancer and A431 cells of skin cancer of human were cultured in a 37 DEG C. 5% CO2 incubator until the density was 90%, they were digested and collected by trypsin, the cells were re-suspended in a culture solution and counted under a microscope, the concentration of the cells was adjusted to 3.0×10^4 cells/mL, and the cell suspension was inoculated to 96-well plates, 100 μL per well, and cultured in a 37 DEG C. 5% CO2 incubator overnight. After the cells were completely adherent, different doses of micropeptides HMMW I to IX were added as drug groups, taxol was used as a positive control group, and the culture solution without any drug was used as a blank control group. They were diluted with the culture solution till predetermined concentrations. The diluted solutions were added to 96-well plates, respectively, 100 μL per well, and incubated in a 37 DEG C. 5% CO2 incubator for 48 h. 20 μL of 5 mg/mL MTT was added to each well of the 96-well plates, and the culture was continued for 4 h. The culture medium was sucked away, and 100 μL of DMSO was added to each well for dissolution. Absorbance was detected by ELIASA at detection wavelength 570 nm and reference wavelength 630 nm, and proliferation inhibition (PI) was calculated according to Formula PI (%)=1−drug group/negative group. The test was independently repeated three times. The results obtained from the test were expressed with mean±SD and statistical t test was done. *P<0.05 means significant difference, and **P<0.01 means very significant difference.

[2] = tested on: MDA-MB-231 cells of breast cancer
Description: as §1

[3] = tested on: SCC4 cells of head and neck cancer
Description: as §1

[4] = tested on: A549 cells of lung cancer
Description: as §1

[5] = tested on: TE13 cells of esophageal squamous cell carcinoma
Description: as §1

[6] = tested on: SW579 cells of thyroid cancer
Description: as §1

[7] = tested on: UOK262 cells of kidney cancer
Description: as §1

[8] = tested on: MGC803 cells of stomach cancer
Description: as §1

Measured: inhibition of proliferation

MERAGVPGFSPRRSSVEAKMQSTSCSVRKSSTVTAWPAVVLLLSWGQRRGG-OH [HMMW-I]
significantly inhibit: [1] | [2] | [3] | [4] | [5] | [6] | [7] | [8]
